Results: publication PMC7504215, “Copper(II) Complexes with Mixed Heterocycle Ligands as Promising Antibacterial and Antitumor Species” (Molecules, 2020)
Like-named read-outs stand apart in the source and are kept apart here.

Columns and labels:
[1] = tested on: human red blood cells (hRBCs); test: Hemolytic activity (adapted ASTM F 756-00); format: cell-based; details: 25 µg/mL, 4 h at 37 °C, threshold 5% (ASTM F 756-00)
Experimental: The hemolytic activity of the compounds was determined using an adapted protocol of ASTM F 756–00 standard based on hemoglobin release from human red blood cells (hRBCs) resulting after cell lyses. Briefly, the blood samples were collected from healthy volunteers, diluted to a concentration of hemoglobin ~10 mg/mL with phosphate buffer saline (PBS) and then incubated with various concentrations of compounds for 4 h at 37 °C. After 4 h, the cells were centrifuged, the supernatant was collected, transferred into 96-well tissue culture plates and mixed with Drabkin reagent, which converts hemoglobin to cyanmethemoglobin (absorption peak at 540 nm). After 15 min, the absorbance of the samples was read at 570 nm using a plate reader. The obtained data was background corrected and used to calculate the hemolytic index as percentage of the hemoglobin released after the treatment with the tested compounds, relative to control samples. The hRBCs in PBS and distilled water were used as negative and positive controls.

[2] = Superoxide scavenging ability by EPR spectroscopy; details: 2.5 μM complex in DMSO, O2− 10, 20 and 30 µM
Experimental: The superoxide scavenging ability of the complexes was tested using the KO2 compound as a superoxide source combined with EPR spectroscopy. […] The KO2 was dissolved by complexation with dibenzo-18-crown-6-ether.

[3] = tested on: sod2Δ cells; format: cell-based, Saccharomyces cerevisiae; details: sod2Δ cells lacking Mn-superoxide dismutase Sod2
Experimental: (§1) The Saccharomyces cerevisiae laboratory strain BY4741 (MATa; his3Δ1; leu2Δ0; met15Δ0; ura3Δ0), considered wild type (WT), and the isogenic strains sod1Δ and sod2Δ lacking the genes SOD1 (encoding Cu/Zn-superoxide dismutase) and SOD2 (encoding Mn-superoxide dismutase) were purchased from EUROSCARF (Frankfurt, Germany). Cells were maintained and manipulated and grown in YPD medium (1% w/v yeast extract, 2% w/v peptone, 2% w/v glucose; 2% w/v agar was added for solid media). Complexes were added to autoclaved media from DMSO sterile stocks (10 mM). To determine the effect of compounds on yeast growth, a fresh overnight pre-culture was 10^3-fold diluted in YPD and incubated (200 rpm, 30 °C) until the culture reached a density of 5 × 10^5 cells/mL. At this point, the compounds were added to the desired concentrations, and cell proliferation was monitored at 660 nm in a 96-well multi-scanner autoreader plate reader equipped with a thermostat and shaker (Varioskan Thermo Fischer Scientific, Vantaa, Finland). The uptake of compounds by yeast cells was determined indirectly by measuring the increase of the total cellular copper content normalized to the total cellular protein determined by Bradford assay. All determinations were done on three biological replicates. The IC50 was calculated by nonlinear regression analysis using the Graphpad Prism software.

[4] = tested on: sod1Δ cells; format: cell-based, Saccharomyces cerevisiae; details: sod1Δ cells lacking Cu/Zn-superoxide dismutase Sod1
Experimental: as §1

[5] = tested on: B16 cells; test: Phalloidin staining and cell imaging (cytoskeleton, nucleus); format: cell-based, Mouse; details: 24 h, 6 μg/mL
Experimental: Cytoskeleton actin filaments of BJ and B16 cells were stained with phalloidin-FITC (Sigma-Aldrich, USA) according to the manufacturer’s protocol. Briefly, cells were washed with PBS (5 min, 3 times), fixed for 5 min with 3% paraformaldehyde, washed three times with PBS, permeabilized with 0.1% Triton X-100 in PBS for 15 min, washed three times with PBS, stained with 20 μg mL^−1 phalloidin-FITC at room temperature for 1 h and washed again three times with PBS. Cell nucleus was stained with 8 μM of Hoechst 33342 solution for 10 min, washed three times with PBS and finally, mounted and sealed on glass slides with FluorSave™ Reagent (Merck Millipore, Germany). The fluorescence images were acquired using an Andor DSD2 Confocal Unit (Andor, Ireland), mounted on an epifluorescence microscope, Olympus BX-51 (Olympus, Germany), equipped with a 40x and 100x objective and an appropriate DAPI/Hoechst filter cube (excitation filter 390/40 m, dichroic mirror 405 nm and emission filter 452/45 nm) and GFP/FITC filter cube (excitation filter 466/40 nm, dichroic mirror 488 nm and emission filter 525/54 nm).

[6] = tested on: normal BJ cell (human fibroblast); test: MTT cell viability assay; format: cell-based
Experimental: (§2) The cytotoxicity of ligand and copper(II) complexes was tested on normal BJ cell as well as on B16 (melanoma) tumor cells, which were grown for 48 h in culture medium containing the tested complexes in 0–25 μg/mL concentration range.
(§3) Human fibroblast cells (BJ-ATCC CRL-2522, Manassas, VA, USA) were grown in minimal essential medium (MEM) supplemented with 2 mM L-Glutamine, 10% fetal calf serum (FCS), 100 units/mL of penicillin and 100 µg/mL of streptomycin at 37 °C in a humidified incubator under an atmosphere containing 5% CO2. Mouse melanoma cells (B16-ATCC CRL-6475, Manassas, VA, USA) were grown in DMEM (Dulbecco’s Modified Eagle Medium) supplemented with similar reagents as MEM. All cell cultivation media and reagents were purchased from Biochrom AG (Berlin, Germany) and Sigma-Aldrich (Darmstadt, Germany).
(§4) Cell viability was evaluated using 3-(4,5-dimethylthiazol-2-yl)-2,5-diphenyltetrazolium bromide (MTT) assay, as described previously. First, the cells were seeded in 96-well plates (20,000 cells/well) and cultured for 24 h in medium. After overnight incubation, the medium was changed and the investigated sample in concentration varying from […] was added for 24 h. The negative control was represented by cells cultivated in medium without the investigated compounds. Following incubation, the medium was changed and the MTT solution was added to each well to a final concentration of 1 mg/mL and incubated for additional 4 h, at 37 °C. Finally, the medium was collected and DMSO was used to dissolve the insoluble formazan product. The absorbance of the samples was recorded at 570 nm using a plate reader Mithras 940 (Berthold). The data were corrected for the background and the percentage of viable cells was obtained using the equation:Cell viability = [(A570 of treated cells)/(A570 of untreated cells)] × 100%
(§5) The half-maximal inhibitory concentration (IC50) was determined by fitting the data with a logistical sigmoidal equation using the software Origin 8.1 from Microcal Inc. (Los Angeles, CA, USA).

[7] = tested on: B16 (melanoma) tumor cells; test: MTT cell viability assay; format: cell-based, Mouse
Experimental: as §2, §3, §4, §5

[8] = B16 cells, 48 h, MTT, read-out: IC50 B16 Cells 48 h

| SMILES | Hemolysis [1] [%] | Superoxide scavenging (EPR signal decrease) [2] | Toxicity compared with WT yeast [3] | Toxicity compared with WT yeast [4] | Cell morphology (cytoskeleton and nucleus) [5] | Viability of BJ cells ([6]; 48 h, highest tested concentration (0–25 μg/mL range)) [%] | Effect on viability of B16 cells ([7]; 24 h of treatment, 0–25 μg/mL) | IC50 B16 Cells 48 h ([7]; B16 cells, 48 h, MTT) [µg/mL] | IC50 [7, 8] [µM] | IC50 BJ Cells 24 h ([6]; BJ cells, 24 h, MTT) [µg/mL] | IC50 ([6]; BJ cells, 24 h, MTT, read-out: IC50 BJ Cells 24 h) [µM] | IC50 BJ Cells 48 h ([6]; BJ cells, 48 h, MTT) [µg/mL] | IC50 ([6]; BJ cells, 48 h, MTT, read-out: IC50 BJ Cells 48 h) [µM] | IC50 B16 Cells 24 h ([7]; B16 cells, 24 h, MTT) [µg/mL] | IC50 ([7]; B16 cells, 24 h, MTT, read-out: IC50 B16 Cells 24 h) [µM] |
| --- | --- | --- | --- | --- | --- | --- | --- | --- | --- | --- | --- | --- | --- | --- | --- |
| Cc1cc(-c2ccccc2)nc2ncnn12.[Cu+2].[O-][Cl+3]([O-])([O-])[O-].[O-][Cl+3]([O-])([O-])[O-].c1ccc(-c2ccccn2)nc1.c1ccc(-c2ccccn2)nc1 [(1), [Cu(bpy)2(pmtp)](ClO4)2] | 0.59 ± 0.18 | trap the superoxide radicals | even more toxic | even more toxic | does not alter the morphology of the cells | 70 | did not affect the viability of B16 cells | 15.46 | 20 | – | – | – | – | – | – |
| Cc1cc(-c2ccccc2)nc2ncnn12.[Cu+2].[O-][Cl+3]([O-])([O-])[O-].[O-][Cl+3]([O-])([O-])[O-].c1cnc2c(c1)ccc1cccnc12.c1cnc2c(c1)ccc1cccnc12 [(2), [Cu(phen)2(pmtp)](ClO4)2] | 0.77 ± 0.14 | trap the superoxide radicals | even more toxic | even more toxic | affects the cell morphology | – | – | 3.72 | 4 | 5.98 | 7 | 3.30 | 4 | 6.25 | 7.5 |
